# Like-named read-outs stand apart in the source and are kept apart here.
# Key:
# [1] = tested on: Gastric Acid Secretion Induced by Histamine; experiment: Inhibition effect on gastric acid secretion induced by histamine in pylorus ligated rat (subcutaneous); type: in vivo, male Wistar rat; details: Rattus norvegicus; 0.2 mg/kg SC; histamine 3 mg/kg SC; average of five runs; read-out: Secretion of Gastric Acid in Rat, Inhibition Rate (%)
# Experimental: (§1) A male Wistar rat having a body weight of about 160 g and which had not fed for 24 hours was anesthetized by an intraperitoneal dose of 1.2 g/kg of urethane. After ligating of pylorus and esophagus, the gaster anterior was incised and fitting with a double polyethylene cannula. The wall of the stomach was rinsed with 5 ml of saline at 30 minutes intervals, and the quantity of gastric acid contained in each rinsing solution was measured by titration.
# The basal acid secretion was initially measured three times, and then 0.2 mg/kg of each of the compounds of this invention was administered subcutaneously and 3 mg/kg of histamine was administered subcutaneously after the lapse of an additional 30 minutes.
# (§2) The quantity of gastric acid secreted after the operation was measured continuously for 3 hours. Within that measurement interval, three time points at which the increase in acid secretion reached a maximum level were selected, and the average quantity of gastric acid secreted at those time points was taken as the increase in acid secretion, which was compared with the increase in acid secretion of the control group to calculate the percent inhibition for secretion of gastric acid (Table 1). [formula] (The result was shown as the average value of five runs.)
# Histamine H2 -Receptor = target: T1, Histamine H2 -Receptor (Cavia porcellus, UniProt P47747); experiment: biochemical; design: species or system male Hartley guinea pig; details: negative logarithm of molar concentration; isolated guinea pig atrium; read-out: Antagonistic Action against Histamine H2 -Receptor (pA2) Determined by Using Atrium isolated from Guinea Pig (converted)
# T1 construct: from tissue; host or cells: isolated right atrium of male Hartley guinea pig
# T1 sequence (P47747 whole entry): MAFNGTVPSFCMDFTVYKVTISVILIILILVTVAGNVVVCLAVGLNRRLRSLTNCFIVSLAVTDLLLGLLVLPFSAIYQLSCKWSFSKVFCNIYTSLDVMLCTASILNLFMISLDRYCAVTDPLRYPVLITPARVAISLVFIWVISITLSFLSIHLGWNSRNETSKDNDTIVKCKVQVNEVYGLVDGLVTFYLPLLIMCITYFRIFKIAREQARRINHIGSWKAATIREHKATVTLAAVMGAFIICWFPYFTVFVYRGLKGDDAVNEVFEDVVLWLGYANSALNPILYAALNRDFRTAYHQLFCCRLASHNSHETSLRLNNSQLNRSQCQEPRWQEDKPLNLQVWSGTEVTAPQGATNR
# Experimental: A male Hartley guinea pig having a body weight of about 400 g was killed by cervical dislocation, and the atrium thereof was isolated and was suspended in an organ bath containing […] of a modified Ringer solution and subjected to a tension of 1 g. The number of heart beats under such condition was recorded using a polygraph.
# Initially, from 1×10^-7 mol to 3×10^-4 mol of histamine was allowed to act accumulatively to depict the curve of the dosage-reaction relationship. Likewise, the curve of the dosage of histamine-reaction relationship was depicted in the presence of 5×10^-7 mol to 1×10^-6 mol of the test sample which was injected 3 minutes before. The negative logarithm (pA2) of the molar concentration of the test sample required for moving the curve obtained by single administration of histamine parallel to the right side by a two-times concentration was calculated.
# [2] = Acute toxicity test on mice dosed orally; type: in vivo; details: mouse, in vivo, po
# Experimental: (§3) Male ddy mice each having a body weight of about 22 g and which had not eaten for 8 hours were orally dosed with the test samples, and the general symptoms and fatalities were observed from the time immediately following the administration to 14 days after the administration.
# (§4) The median lethal dose (LD50) was calculated in accordance with the Litchfield and Wilcoxon Method.
# [3] = tested on: Gastric Acid Secretion Induced by Histamine; experiment: Inhibitory effect of intraduodenally administered compounds on gastric acid secretion induced by histamine in rat; type: in vivo, male Wistar rat; details: for ED50: Rattus norvegicus, intraduodenal, 30 minutes before histamine SC, first series (Table 2-1), read-out: Median effective dose (ED50) inhibiting Gastric Acid Section (95% Reliability Limit); for Efficacy Ratio relative to Cimetidine (Cimetidine = 1): rat, in vivo
# Experimental: The test was conducted by an improved method based on that reported by Watanabe et al., in "Pharmacometrics", Vol. 3, No. (1), pages 7 to 14 (1969).
# as §1, §2
# Mice = experiment: Acute toxicity test on mice dosed orally; type: in vivo; details: orally, mice
# Experimental: as §3, §4
# [4] = P.O., 14 days observation, Litchfield and Wilcoxon Method, read-out: Median lethal dose (LD50)
SMILES,inhibition in vivo at 0.2 mg/kg [1],Kb (Histamine H2 -Receptor),"LD50 at 336 h [2, 4]",ED50 [3],Efficacy Ratio relative to Cimetidine (Cimetidine = 1) [3],acute toxicity / LD50 (in words) (Mice),LD50 at 336 h [2]
"CNc1n[s+]([O-])nc1NC/C=C\COc1cc(CN(C)C)ccn1 (stereo not drawn) [Ex. 12, 3-methylamino-4-<4-(4-dimethylaminomethylpyridyl-2-oxy)-cis-2-butenylamino>-1,2,5-thiadiazole-1-oxide]",91%,263 nM,> 1500 mg/kg,,,,
"CNc1c(NC/C=C\COc2cc(CN3CCCCC3)ccn2)c(=O)c1=O [Ex. 2, 1-methylamino-2-[4-<4-(1-piperidinomethyl)pyridyl-2-oxy>-cis-2-butenylamino]-1-cyclobuten-3,4-dione]",60%,174 nM,> 1500 mg/kg,0.27 mg/kg,25.9,,
"Nc1n[s+]([O-])nc1NC/C=C/COc1cc(CN2CCCCC2)ccn1 (stereo not drawn) [Ex. 9, 3-amino-4-[4-<4-(1-piperidinomethyl)pyridyl-2-oxy>-trans-2-butenylamino]-1,2,5-thiadiazole-1-oxide]",62%,339 nM,> 1500 mg/kg,0.46 mg/kg,15.2,,
"Cn1nc(N)c(NC/C=C\COc2cc(CN3CCCCC3)ccn2)nc1=O [Ex. 29, 6-amino-2-methyl-5-[4-<4-(1-piperidinomethyl)pyridyl-2-oxy>-cis-2-butenylamino]-1,2,4-triazin-3-one]",74%,708 nM,1250 mg/kg,,,lower LD50 values than that of Cimetidine,
"Cn1nc(N)nc1NC/C=C\COc1cc(CN2CCCCC2)ccn1 [Ex. 19, 3-amino-1-methyl-5-[4-<4-(1-piperidinomethyl)pyridyl-2-oxy>-cis-2-butenylamino]-1H-1,2,4-triazole]",3%,759 nM,> 1500 mg/kg,,,,
"Nc1n[s+]([O-])nc1NC/C=C\COc1cc(CN2CCCCC2)ccn1 (stereo not drawn) [Ex. 7, 3-amino-4-[4-<4-(1-piperidinomethyl)pyridyl-2-oxy>-cis-2-butenylamino]-1,2,5-thiadiazole-1-oxide]",90%,661 nM,,0.44 mg/kg,15.9,,
"Nc1c(NC/C=C\COc2cc(CN3CCCCC3)ccn2)c(=O)c1=O [Ex. 1, 1-amino-2-[4-<4-(1-piperidinomethyl)pyridyl-2-oxy>-cis-2-butenylamino]-1-cyclobuten-3,4-dione]",54%,339 nM,,0.15 mg/kg,,,> 1500 mg/kg
"CN(C)Cc1ccnc(OC/C=C\CNc2n[s+]([O-])nc2N)c1 (stereo not drawn) [Ex. 11, 3-amino-4-<4-(4-dimethylaminomethylpyridyl-2-oxy)-cis-2-butenylamino>-1,2,5-thiadiazole-1-oxide]",101%,490 nM,> 1500 mg/kg,,,,
"Nc1nnc(NC/C=C\COc2cc(CN3CCCCC3)ccn2)s1 [Ex. 17, 2-amino-5-[4-<4-(1-piperidinomethyl)pyridyl-2-oxy>-cis-2-butenylamino]-1,3,4-thiadiazole]",69%,204 nM,,0.14 mg/kg,50.0,,
"O=c1nc(NC/C=C\COc2cc(CN3CCCCC3)ccn2)[nH]cc1Cc1cccnc1 [Ex. 22, 2-[4-<4-(1-piperidinomethyl)pyridyl-2-oxy>-cis-2-butenylamino]-5-(3-pyridylmethyl)-1H-pyrimidin-4-one]",40%,363 nM,1600 mg/kg,,,lower LD50 values than that of Cimetidine,
"Nc1n[nH]c(=O)nc1NC/C=C\COc1cc(CN2CCCCC2)ccn1 [Ex. 27, 6-amino-5-[4-<4-(1-piperidinomethyl)pyridyl-2-oxy>-cis-2-butenylamino]-1,2,4-triazin-3-one]",88%,275 nM,> 1500 mg/kg,,,,
